# In paper PMC7693160 (Pharmaceutics, 2020):
# Read-outs that look alike come from different tables or passages of the source.
# Tests used:
# [1] = Equilibrium solubility, Uniprep method, 24 h at 37 °C; assay type: physicochemical
# Method: The solubility of FLU was investigated in various aqueous and biorelevant dissolution media using the Uniprep system (Whatman, Piscataway, NJ, USA). All aqueous buffers were prepared according to the European Pharmacopoeia, while the biorelevant media were prepared according to Markopoulos et al. and Fuchs et al.. An excess amount of API was added to 3 mL of dissolution medium and the samples were incubated for 24 h at 37 °C on an orbital mixer. The samples were then filtered through the 0.45 μm polytetrafluoroethylene (PTFE) filter integrated in the Uniprep system. The filtrate was immediately diluted with mobile phase and analyzed by high-performance liquid chromatography (HPLC) (see Section 2.5). All measurements were performed at least in triplicate (n ≥ 3) and the final pH was recorded. […] Whatman, Piscataway, NJ, USA) and subsequently, after appropriate dilution with mobile phase, analyzed by HPLC-UV (Hitachi Chromaster; Hitachi Ltd., Tokyo, Japan or Spectra System HPLC, ThermoQuest Inc., San Jose, CA, USA). A BDS Hypersil C18, 5 μm, 150 × 4.6 mm (Thermo Scientific, Waltham, MA, United States) analytical column combined with a pre-column (BDS Hypersil C-18, 3μm, 10 × 4mm) was used. The mobile phase consisted of water adjusted to pH = 3.0 with trifluoroacetic acid (TFA) and acetonitrile (49.5:0.5:50% v/v). The detection wavelength was set at 247 nm, the flow rate at 1.0 mL/min, and the injection volume at 20 μL. Using this method, the retention time was approximately 6.8 min.
# [2] = In vitro dissolution, USP II paddle apparatus; assay type: physicochemical
# Method: All dissolution tests were performed using a calibrated USP II (paddle) apparatus (Erweka DT 80, Heusenstamm, Germany) at 37 ± 0.4 °C. Each vessel contained 500 mL of fresh, pre-warmed medium and the rotational speed was set at 75 rpm. Samples were withdrawn at 2.5, 5, 10, 15, 20, 30, 45, 60, 90, and 120 min via a 5 mL glass syringe connected to a stainless-steel cannula containing a 10 μm polyethylene cannula filter. Immediately thereafter, the sample was filtered through a 0.45 μm PTFE filter (ReZist 30, GE Healthcare UK Ltd., Buckinghamshire, United Kingdom), discarding the first 2 mL. The filtrate was immediately diluted with mobile phase and analyzed by HPLC-UV (see Section 2.5). The removal of 5 mL at each sampling time was considered in the calculation of the percentage dissolved. All experiments were performed at least in triplicate (n ≥ 3) and the final pH in the vessel was recorded.
# Samples obtained from solubility and dissolution experiments were first filtered through a 0.45 μm PTFE filter (ReZist 30 syringe filter or Uniprep; Whatman, Piscataway, NJ, USA) and subsequently, after appropriate dilution with mobile phase, analyzed by HPLC-UV (Hitachi Chromaster; Hitachi Ltd., Tokyo, Japan or Spectra System HPLC, ThermoQuest Inc., San Jose, CA, USA). A BDS Hypersil C18, 5 μm, 150 × 4.6 mm (Thermo Scientific, Waltham, MA, United States) analytical column combined with a pre-column (BDS Hypersil C-18, 3μm, 10 × 4mm) was used. The mobile phase consisted of water adjusted to pH = 3.0 with trifluoroacetic acid (TFA) and acetonitrile (49.5:0.5:50% v/v). The detection wavelength was set at 247 nm, the flow rate at 1.0 mL/min, and the injection volume at 20 μL. Using this method, the retention time was approximately 6.8 min. The limit of detection (LOD) and quantification (LOQ) were 0.03 and 0.05 μg/mL, respectively.
compound,measurement,setting,value
CC(C(=O)O)c1ccc(-c2ccccc2)c(F)c1 (centres unmarked) [flurbiprofen],solubility at 24 h,"[1]; 37 °C, aqueous buffer, thermodynamic from solid, Acetate buffer (pH = 4.5), pHfinal 4.7, read-out: Solubility, mean (SD)",101 µg/mL
same,solubility at 24 h,"[1]; 37 °C, aqueous buffer, thermodynamic from solid, Phosphate buffer (pH = 6.5), pHfinal 6.1, read-out: Solubility, mean (SD)",2020 µg/mL
same,solubility at 24 h,"[1]; 37 °C, aqueous buffer, thermodynamic from solid, Phosphate buffer (pH = 6.8), pHfinal 6.3, read-out: Solubility, mean (SD)",3130 µg/mL
same,solubility at 24 h,"[1]; 37 °C, fassgf or other biorelevant, thermodynamic from solid, Level III FaSSGF (pH = 1.6), pHfinal 1.6, read-out: Solubility, mean (SD)",18.5 µg/mL
same,solubility at 24 h,"[1]; 37 °C, thermodynamic from solid, FaSSGF Level I (pH = 1.6), pHfinal 1.6, read-out: Solubility, mean (SD)",18.1 µg/mL
same,solubility at 24 h,"[1]; 37 °C, thermodynamic from solid, FeSSIF V1 Level I (pH = 5.0), pHfinal 5.1, read-out: Solubility, mean (SD)",225 µg/mL
same,solubility at 24 h,"[1]; 37 °C, thermodynamic from solid, Level II FaSSIF V1 (pH = 6.5), pHfinal 6.0, read-out: Solubility, mean (SD)",1950 µg/mL
same,solubility at 24 h,"[1]; 37 °C, thermodynamic from solid, Level II FaSSIF V3 (pH = 6.7), pHfinal 5.9, read-out: Solubility, mean (SD)",1590 µg/mL
same,solubility at 24 h,"[1]; aqueous buffer (FaSSGF Level I), pH 1.6, minimum experimentally measured value, read-out: S0 (intrinsic solubility)",18 µg/mL
same,maximum dissolved,"[2]; FaSSGF Level I, 100 mg",5.5%
same,plateau of in vitro release,"[2]; FaSSGF Levels I and III, 100 mg",around 8.3 % of the dose
same,time to 85% dissolved,[2]; FaSSIF V3 Level I (without bile components),60 min
same,time to >85% dissolved,[2]; FaSSIF V3 Level II,≤ 2.5 min
same,time to >85% dissolved,[2]; Ph. Eur. phosphate buffer (pH 6.8),≤ 15 min
